This note sets out measurements from patent US11078198B2 (BRISTOL-MYERS SQUIBB COMPANY, priority 2017, dated 2021).

This test deals with T1, human FXR (Homo sapiens, UniProt Q96RI1).
T1 construct: expressed in transfected cells; host or cells: HEK293 cells stably carrying a 5xGal4-response-element firefly luciferase reporter, transiently transfected with pcDNA3.1-Gal4-FXR
T1 sequence (Q96RI1 262-486 limits assumed): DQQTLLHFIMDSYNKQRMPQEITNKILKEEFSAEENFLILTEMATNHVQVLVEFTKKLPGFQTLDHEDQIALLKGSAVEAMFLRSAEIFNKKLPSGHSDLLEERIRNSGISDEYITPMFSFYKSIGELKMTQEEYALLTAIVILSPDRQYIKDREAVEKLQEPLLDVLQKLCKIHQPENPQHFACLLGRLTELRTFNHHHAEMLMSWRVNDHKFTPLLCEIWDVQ
Briefly: transient human FXR/Gal4-luciferase reporter assay. The test is classed as cell-based. The note with it: Gal4-hFXR transfected HEK293 reporter cells; relative to 8 μM GW-4064. Summed up:
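HEK293 cells stably carrying a 5×Gal4-response-element firefly luciferase reporter, transiently transfected overnight with a CMV-driven Gal4 DNA-binding domain/human FXR ligand-binding domain fusion.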

Structures are written as SMILES.

As for `O=C(O)c1cc(F)c2nc(N3CCC4(C=C(c5c(-c6ncccc6Cl)noc5C5CC5)C4)CC3)sc2c1` [Example 46, 2-(2-(3-(3-Chloropyridin-2-yl)-5-cyclopropylisoxazol-4-yl)-7-azaspiro[3.5]non-1-en-7-yl)-4-fluorobenzo[d]thiazole-6-carboxylic acid], the EC50 – broadly, the concentration needed to bring the measured effect to its halfway point – came to 200 nM.

Molecule `O=C(O)c1cc(F)c2nc(N3CCC4(CC3)CC(c3c(-c5ccccc5C(F)(F)F)noc3C3CC3)C4)sc2c1` [Example 36, 2-(2-(5-cyclopropyl-3-(2-(trifluoromethyl)phenyl)isoxazol-4-yl)-7-azaspiro[3.5]nonan-7-yl)-4-fluorobenzo[d]thiazole-6-carboxylic acid] had an EC50 of 116 nM.

In turn, `Cc1nc(N2CCC3(C=C(c4c(-c5c(Cl)cccc5Cl)noc4C4CC4)C3)CC2)ccc1C(=O)O` [Example 124, 6-(2-(5-Cyclopropyl-3-(2,6-dichlorophenyl)isoxazol-4-yl)-7-azaspiro[3.5]non-1-en-7-yl)-2-methylnicotinic acid] returned an EC50 of 78 nM.

`O=C(O)c1ccc(N2CCC3(CC2)COC(c2c(-c4ccccc4OC(F)(F)F)noc2C2CC2)O3)nc1` (centres unmarked) [Example 43, 6-(2-(5-Cyclopropyl-3-(2-(trifluoromethoxy)phenyl)isoxazol-4-yl)-1,3-dioxa-8-azaspiro[4.5]decan-8-yl)nicotinic acid] displayed a 50% effective concentration (EC50) of 5300 nM.

Take `O=C(O)c1ccc(N2CCC3(C=C(c4c(-c5ccccc5OC(F)(F)F)noc4C4CC4)C3)CC2)nn1` [Example 18, 6-(2-(5-Cyclopropyl-3-(2-(trifluoromethoxy)phenyl)isoxazol-4-yl)-7-azaspiro[3.5]non-1-en-7-yl)pyridazine-3-carboxylic acid]: the EC50 was determined as 1500 nM.

Molecule `Cn1c(N2CCC3(C=C(c4c(-c5c(Cl)cccc5Cl)noc4C4CC4)C3)CC2)nc2cc(C(=O)O)ccc21` [Example 25, 2-(2-(5-Cyclopropyl-3-(2,6-dichlorophenyl)isoxazol-4-yl)-7-azaspiro[3.5]non-1-en-7-yl)-1-methyl-1H-benzo[d]imidazole-5-carboxylic acid] had an EC50 of 1020 nM.

Consider `O=C(O)c1cc(F)c2nc(N3CCC4(C=C(c5c(C6CC6)nnn5-c5c(Cl)cccc5Cl)C4)CC3)sc2c1` [Example 204, 2-(2-(4-Cyclopropyl-1-(2,6-dichlorophenyl)-1H-1,2,3-triazol-5-yl)-7-azaspiro[3.5]non-1-en-7-yl)-4-fluorobenzo[d]thiazole-6-carboxylic acid], for which the EC50 was 26 nM.

Molecule `CC(C)NC(=O)c1cc(F)c2nc(N3CCC4(C=C(c5c(-c6c(Cl)cncc6Cl)noc5C5CC5)C4)CC3)sc2c1` [Example 199, 2-(2-(5-Cyclopropyl-3-(3,5-dichloropyridin-4-yl)isoxazol-4-yl)-7-azaspiro[3.5]non-1-en-7-yl)-4-fluoro-N-isopropylbenzo[d]thiazole-6-carboxamide] displayed a half-maximal effective concentration (EC50) of 431 nM.

Molecule `Cc1cc(C(=O)O)cc2sc(N3CCC4(C=C(c5c(-c6c(Cl)cncc6Cl)noc5C5CC5)C4)CC3)nc12` [Example 61, 2-(2-(5-Cyclopropyl-3-(3,5-dichloropyridin-4-yl)isoxazol-4-yl)-7-azaspiro[3.5]non-1-en-7-yl)-4-methylbenzo[d]thiazole-6-carboxylic acid] registered a half-maximal effective concentration (EC50) of 7.2 nM.

In turn, `Cc1cccc(Cl)c1-c1noc(C2CC2)c1C1=CC2(CCN(c3ccc4cc(C(=O)O)nnc4c3)CC2)C1` [Example 57, 7-(2-(3-(2-Chloro-6-methylphenyl)-5-cyclopropylisoxazol-4-yl)-7-azaspiro[3.5]non-1-en-7-yl)cinnoline-3-carboxylic acid] displayed an EC50 of 227 nM. This EC50 is about 32-fold higher than that of the molecule before.

As to `O=C(O)c1cc(OC(F)F)c2cc(N3CCC4(C=C(c5c(-c6ncccc6Cl)noc5C5CC5)C4)CC3)ccc2n1` [Example 78, 6-(2-(3-(3-Chloropyridin-2-yl)-5-cyclopropylisoxazol-4-yl)-7-azaspiro[3.5]non-1-en-7-yl)-4-(difluoromethoxy)quinoline-2-carboxylic acid], the EC50 was determined as 121 nM.

In the case of `NS(=O)(=O)NC(=O)c1cc(F)c2nc(N3CCC4(C=C(c5c(-c6c(Cl)cncc6Cl)noc5C5CC5)C4)CC3)sc2c1` [Example 197, 2-(2-(5-Cyclopropyl-3-(3,5-dichloropyridin-4-yl)isoxazol-4-yl)-7-azaspiro[3.5]non-1-en-7-yl)-4-fluoro-N-sulfamoylbenzo[d]thiazole-6-carboxamide], a half-maximal effect (EC50) was put at 381 nM. This EC50 lies about 3.1-fold higher than the previous one.

`O=C(O)c1nc(C(F)(F)F)n2cc(N3CCC4(C=C(c5c(-c6ccccc6OC(F)(F)F)noc5C5CC5)C4)CC3)ccc12` [Example 166, 6-(2-(5-Cyclopropyl-3-(2-(trifluoromethoxy)phenyl)isoxazol-4-yl)-7-azaspiro[3.5]non-1-en-7-yl)-3-(trifluoromethyl)imidazo[1,5-a]pyridine-1-carboxylic acid] gave a concentration giving a half-maximal response (EC50) of 494 nM.

`CC(C)c1onc(-c2c(Cl)cccc2Cl)c1C1=CC2(CCN(c3ccc4nc(C(=O)O)cc(C(F)(F)F)c4c3)CC2)C1` [Example 84, 6-(2-(3-(2,6-Dichlorophenyl)-5-isopropylisoxazol-4-yl)-7-azaspiro[3.5]non-1-en-7-yl)-4-(trifluoromethyl)quinoline-2-carboxylic acid] yielded an EC50 of 127 nM.

Molecule `O=C(O)COc1cnc2ccc(N3CCC4(C=C(c5c(-c6c(Cl)cccc6Cl)noc5C5CC5)C4)CC3)cc2n1` [Example 130, 2-((7-(2-(5-Cyclopropyl-3-(2,6-dichlorophenyl)isoxazol-4-yl)-7-azaspiro[3.5]non-1-en-7-yl)quinoxalin-2-yl)oxy)acetic acid] yielded a 50% effective concentration (EC50) of 373 nM.

The molecule `Cc1cc(C(=O)O)nc(N2CCC3(C=C(c4c(-c5ccccc5C(F)(F)F)noc4C4CC4)C3)CC2)n1` [Example 169, 2-(2-(5-Cyclopropyl-3-(2-(trifluoromethyl)phenyl)isoxazol-4-yl)-7-azaspiro[3.5]non-1-en-7-yl)-6-methylpyrimidine-4-carboxylic acid] displayed an EC50 of 1300 nM.

The molecule `O=C(O)c1cnc(N2CCC3(C=C(c4c(-c5c(Cl)cccc5Cl)noc4C4CC4)C3)CC2)nc1` [Example 118, 2-(2-(5-Cyclopropyl-3-(2,6-dichlorophenyl)isoxazol-4-yl)-7-azaspiro[3.5]non-1-en-7-yl)pyrimidine-5-carboxylic acid] showed an EC50 of 171 nM.

Turning to `O=C(O)c1cnc2cc(N3CCC4(C=C(c5c(-c6ccccc6C(F)(F)F)noc5C5CC5)C4)CC3)ccc2n1` [Example 178, 6-(2-(5-Cyclopropyl-3-(2-(trifluoromethyl)phenyl)isoxazol-4-yl)-7-azaspiro[3.5]non-1-en-7-yl)quinoxaline-2-carboxylic acid], the EC50 worked out at 172 nM.

In turn, `O=C(O)c1cc(F)c2nc(OC3CCC4(C=C(c5c(-c6c(Cl)cccc6Cl)noc5C5CC5)C4)CC3)sc2c1` (centres unmarked) [Example 209, 2-((2-(5-Cyclopropyl-3-(2,6-dichlorophenyl)isoxazol-4-yl)spiro[3.5]non-1-en-7-yl)oxy)-4-fluorobenzo[d]thiazole-6-carboxylic acid] came in with an EC50 of 1280 nM. This EC50 lies about 7.4-fold higher than the previous one.

Turning to `CCOc1cc(C(=O)O)nc2ccc(N3CCC4(C=C(c5c(-c6ccccc6C(F)(F)F)noc5C5CC5)C4)CC3)cc12` [Example 72, 6-(2-(5-Cyclopropyl-3-(2-(trifluoromethyl)phenyl)isoxazol-4-yl)-7-azaspiro[3.5]non-1-en-7-yl)-4-ethoxyquinoline-2-carboxylic acid], the EC50 worked out at 10 nM. Compared with the last molecule, the EC50 is about 130-fold lower.

`CS(=O)(=O)NC(=O)c1cc(F)c2nc(N3CCC4(C=C(c5c(-c6c(Cl)cccc6Cl)noc5C5CC5)C4)CC3)sc2c1` [Example 180, 2-(2-(5-Cyclopropyl-3-(2,6-dichlorophenyl)isoxazol-4-yl)-7-azaspiro[3.5]non-1-en-7-yl)-4-fluoro-N-(methylsulfonyl)benzo[d]thiazole-6-carboxamide]: the EC50 was found to be 35 nM. Against the preceding molecule, the EC50 is about 3.5-fold higher.

As for `O=C(O)c1cc(F)c2nc(N3CCC4(C=C(c5c(-c6c(F)cncc6F)noc5C5CC5)C4)CC3)sc2c1` [Example 68, 2-(2-(5-Cyclopropyl-3-(3,5-difluoropyridin-4-yl)isoxazol-4-yl)-7-azaspiro[3.5]non-1-en-7-yl)-4-fluorobenzo[d]thiazole-6-carboxylic acid], the midpoint of the response, the EC50, lay at 442 nM. This EC50 lies about 13-fold higher than the previous one.

Regarding `O=C(O)c1cnc(N2CCC3(C=C(c4c(-c5ccccc5OC(F)(F)F)noc4C4CC4)C3)CC2)c(F)c1` [Example 27, 6-(2-(5-Cyclopropyl-3-(2-(trifluoromethoxy)phenyl)isoxazol-4-yl)-7-azaspiro[3.5]non-1-en-7-yl)-5-fluoronicotinic acid], the EC50 was determined as 1100 nM.

As to `Cc1cc(C(=O)O)cc2sc(N3CCC4(CC3)CC(c3c(C(F)F)cnn3-c3ccccc3C(F)(F)F)C4)nc12` [Example 220, 2-(2-(4-(Difluoromethyl)-1-(2-(trifluoromethyl)phenyl)-1H-pyrazol-5-yl)-7-azaspiro[3.5]nonan-7-yl)-4-methylbenzo[d]thiazole-6-carboxylic acid], the EC50 came out at 378 nM.

`O=C(O)c1cc(F)c2nc(N3CCC4(C=C(c5c(-c6cccnc6C(F)(F)F)noc5C5CC5)C4)CC3)sc2c1` [Example 138, 2-(2-(5-Cyclopropyl-3-(2-(trifluoromethyl)pyridin-3-yl)isoxazol-4-yl)-7-azaspiro[3.5]non-1-en-7-yl)-4-fluorobenzo[d]thiazole-6-carboxylic acid] registered an EC50 of 319 nM.

As to `O=C(O)c1cc(OC(F)F)c2cc(N3CCC4(C=C(c5c(-c6cnccc6C(F)(F)F)noc5C5CC5)C4)CC3)ccc2n1` [Example 75, 6-(2-(5-Cyclopropyl-3-(4-(trifluoromethyl)pyridin-3-yl)isoxazol-4-yl)-7-azaspiro[3.5]non-1-en-7-yl)-4-(difluoromethoxy)quinoline-2-carboxylic acid], the EC50 was 35 nM. This EC50 is about 9.1-fold lower than that of the molecule before.
